Data published in ChEMBL document CHEMBL1153550, “In vitro study of Candida tropicalis isolates exhibiting paradoxical growth in the presence of high concentrations of caspofungin” (2007).
Converted amounts (≈) assume the structure as drawn.

Tests used:
Type in all cases: functional
[1] = system: Candida tropicalis; assay: Antifungal activity against Candida tropicalis isolate 6 in RPMI 1640 medium by broth dilution susceptibility test
[2] = system: Candida tropicalis; assay: Antifungal activity against Candida tropicalis ATCC 750 in RPMI 1640 medium by broth dilution susceptibility test
[3] = system: Candida tropicalis; assay: Antifungal activity against Candida tropicalis isolate 15 in RPMI 1640 medium by broth dilution susceptibility test
[4] = system: Candida tropicalis; assay: Antifungal activity against Candida tropicalis isolate 4 in RPMI 1640 medium by broth dilution susceptibility test
[5] = system: Candida tropicalis; assay: Antifungal activity against Candida tropicalis isolate 8 in RPMI 1640 medium by broth dilution susceptibility test
[6] = system: Candida tropicalis; assay: Antifungal activity against Candida tropicalis isolate 13 in RPMI 1640 medium by broth dilution susceptibility test
[7] = system: Candida tropicalis; assay: Antifungal activity against Candida tropicalis isolate 7 in RPMI 1640 medium by broth dilution susceptibility test
[8] = system: Candida tropicalis; assay: Antifungal activity against Candida tropicalis isolate 5 in RPMI 1640 medium by broth dilution susceptibility test

SMILES | MIC [1] | MIC [2] | MIC [3] | MIC [4] | MIC [5] | MIC [6] | MIC [7] | MIC [8]
OC(Cn1cncn1)(Cn1cncn1)c1ccc(F)cc1F [FLUCONAZOLE] | 0.25 µg/mL (≈ 0.816 µM) | 1 µg/mL (≈ 3.27 µM) | 0.25 µg/mL (≈ 0.816 µM) | 0.5 µg/mL (≈ 1.63 µM) | 0.5 µg/mL (≈ 1.63 µM) | 0.5 µg/mL (≈ 1.63 µM) | 0.25 µg/mL (≈ 0.816 µM) | 0.25 µg/mL (≈ 0.816 µM)
Nc1nc(=O)[nH]cc1F [FLUCYTOSINE] | 0.12 µg/mL (≈ 0.93 µM) | 0.12 µg/mL (≈ 0.93 µM) | 0.12 µg/mL (≈ 0.93 µM) | 0.12 µg/mL (≈ 0.93 µM) | 0.12 µg/mL (≈ 0.93 µM) | 0.12 µg/mL (≈ 0.93 µM) | 0.12 µg/mL (≈ 0.93 µM) | 0.12 µg/mL (≈ 0.93 µM)
C[C@@H]1[C@H](O)[C@@H](C)/C=C/C=C/C=C/C=C/C=C/C=C/C=C/[C@H](O[C@@H]2O[C@H](C)[C@@H](O)[C@H](N)[C@@H]2O)C[C@@H]2O[C@](O)(C[C@@H](O)C[C@@H](O)[C@H](O)CC[C@@H](O)C[C@@H](O)CC(=O)O[C@H]1C)C[C@H](O)[C@H]2C(=O)O [AMPHOTERICIN B] | 2 µg/mL (≈ 2.16 µM) | 1 µg/mL (≈ 1.08 µM) | 2 µg/mL (≈ 2.16 µM) | 2 µg/mL (≈ 2.16 µM) | 2 µg/mL (≈ 2.16 µM) | 2 µg/mL (≈ 2.16 µM) | 2 µg/mL (≈ 2.16 µM) | 2 µg/mL (≈ 2.16 µM)
